Measured values: ChEMBL document CHEMBL1909570, “Synthesis and antibacterial activity of N4-mono alkyl derivatives of novel glycopeptide LYV07ww01” (2011)
≈ marks a conversion by molar mass, not a printed value.

Assays:
Assay type in all cases: functional
Streptococcus pneumoniae [1] = assay: Antibacterial activity against penicillin-intermediate Streptococcus pneumoniae ATCC 49619 by CLSI broth microdilution method
Enterococcus faecium [2] = assay: Antibacterial activity against vancomycin-sensitive Enterococcus faecium ATCC 35667 by CLSI agar microdilution method
Streptococcus pneumoniae [3] = assay: Antibacterial activity against penicillin-resistant Streptococcus pneumoniae MSPN 0003 by CLSI broth microdilution method
Enterococcus faecalis [4] = assay: microbe, parasite or virus in culture; settings: ATCC 51299
Staphylococcus aureus [5] = assay: microbe, parasite or virus in culture; settings: ATCC 33591
Description: Antibacterial activity against methicillin-resistant Staphylococcus aureus ATCC 33591 by CLSI agar microdilution method

Enterococcus faecalis [6] = assay: microbe, parasite or virus in culture; settings: ATCC 29212
Description: Antibacterial activity against vancomycin-sensitive Enterococcus faecalis ATCC 29212 by CLSI agar microdilution method

Enterococcus faecium [7] = assay: Antibacterial activity against Enterococcus faecium 32220 by CLSI agar microdilution method
Streptococcus = assay: Antibacterial activity against Streptococcus gamma 32206 by CLSI agar microdilution method
Enterococcus faecium [8] = assay: Antibacterial activity against vancomycin-resistant Enterococcus faecium MEFA 0039 by CLSI agar microdilution method
[9] = test system: Staphylococcus epidermidis; assay: Antibacterial activity against Staphylococcus epidermidis 26069 by CLSI agar microdilution method
Streptococcus pneumoniae [10] = assay: Antibacterial activity against Streptococcus pneumoniae 31002 by CLSI agar microdilution method
Staphylococcus aureus [11] = assay: Antibacterial activity against Staphylococcus aureus 26003 by CLSI agar microdilution method
Staphylococcus = assay: Antibacterial activity against Staphylococcus albus 26101 by CLSI agar microdilution method
Staphylococcus aureus [12] = assay: microbe, parasite or virus in culture; settings: ATCC 25923
Description: Antibacterial activity against methicillin-sensitive Staphylococcus aureus ATCC 25923 by CLSI agar microdilution method

Enterococcus faecium [13] = assay: Antibacterial activity against vancomycin-sensitive Enterococcus faecium ATCC 35667 by CLSI agar microdilution method relative to LYV07ww01
Enterococcus faecalis [14] = assay: Antibacterial activity against vancomycin-resistant Enterococcus faecalis ATCC 51299 by CLSI agar microdilution method relative to vancomycin
Enterococcus faecium [15] = assay: Antibacterial activity against vancomycin-resistant Enterococcus faecium MEFA 0039 by CLSI agar microdilution method relative to vancomycin

Structure (SMILES)	MIC (Streptococcus pneumoniae [1]) [mg/L]	MIC (Enterococcus faecium [2]) [mg/L]	MIC (Streptococcus pneumoniae [3]) [mg/L]	MIC (Enterococcus faecalis [4]) [mg/L]	MIC (Staphylococcus aureus [5]) [mg/L]	MIC (Enterococcus faecalis [6]) [mg/L]	MIC (Enterococcus faecium [7]) [mg/L]	MIC (Streptococcus) [mg/L]	MIC (Enterococcus faecium [8]) [mg/L]	MIC [9] [mg/L]	MIC (Streptococcus pneumoniae [10]) [mg/L]	MIC (Staphylococcus aureus [11]) [mg/L]	MIC (Staphylococcus) [mg/L]	MIC (Staphylococcus aureus [12]) [mg/L]	fold change (FC) (Enterococcus faecium [13])	fold change (FC) (Enterococcus faecalis [14])	fold change (FC) (Enterococcus faecium [15])
CN[C@H](CC(C)C)C(=O)N[C@H]1C(=O)N[C@@H](CC(N)=O)C(=O)N[C@H]2C(=O)N[C@H]3C(=O)N[C@H](C(=O)N[C@@H](C(=O)O)c4cc(O)cc(O)c4-c4cc3ccc4O)[C@H](O[C@H]3C[C@](C)(N)[C@H](O)[C@H](C)O3)c3ccc(c(Cl)c3)Oc3cc2cc(c3O[C@@H]2O[C@H](CO)[C@@H](O)[C@H](O)[C@H]2O[C@H]2C[C@](C)(N)[C@H](O)[C@H](C)O2)Oc2ccc(cc2Cl)[C@H]1O	0.063 (≈ 0.0396 µM)	0.125 (≈ 0.0785 µM)	0.125 (≈ 0.0785 µM)	0.5 (≈ 0.314 µM)	0.125 (≈ 0.0785 µM)	0.25 (≈ 0.157 µM)	3.13 (≈ 1.97 µM)	0.78 (≈ 0.49 µM)	8 (≈ 5.02 µM)	> 25	0.098 (≈ 0.0615 µM)	0.39 (≈ 0.245 µM)	0.78 (≈ 0.49 µM)	0.25 (≈ 0.157 µM)			
CN[C@H](CC(C)C)C(=O)N[C@H]1C(=O)N[C@@H](CC(N)=O)C(=O)N[C@H]2C(=O)N[C@H]3C(=O)N[C@H](C(=O)N[C@@H](C(=O)O)c4cc(O)cc(O)c4-c4cc3ccc4O)[C@H](O[C@H]3C[C@](C)(N)[C@H](O)[C@H](C)O3)c3ccc(c(Cl)c3)Oc3cc2cc(c3O[C@@H]2O[C@H](CO)[C@@H](O)[C@H](O)[C@H]2O[C@H]2C[C@](C)(NCc3cccc(Br)c3)[C@H](O)[C@H](C)O2)Oc2ccc(cc2Cl)[C@H]1O	≤ 0.031	≤ 0.031	≤ 0.031	0.5 (≈ 0.284 µM)	0.5 (≈ 0.284 µM)	0.25 (≈ 0.142 µM)	0.78 (≈ 0.443 µM)	3.13 (≈ 1.78 µM)	2 (≈ 1.14 µM)	> 25	0.78 (≈ 0.443 µM)	0.78 (≈ 0.443 µM)	0.78 (≈ 0.443 µM)	1 (≈ 0.568 µM)	4	4	
CN[C@H](CC(C)C)C(=O)N[C@H]1C(=O)N[C@@H](CC(N)=O)C(=O)N[C@H]2C(=O)N[C@H]3C(=O)N[C@H](C(=O)N[C@@H](C(=O)O)c4cc(O)cc(O)c4-c4cc3ccc4O)[C@H](O[C@H]3C[C@](C)(N)[C@H](O)[C@H](C)O3)c3ccc(c(Cl)c3)Oc3cc2cc(c3O[C@@H]2O[C@H](CO)[C@@H](O)[C@H](O)[C@H]2O[C@H]2C[C@](C)(NCc3ccc(C(C)C)cc3)[C@H](O)[C@H](C)O2)Oc2ccc(cc2Cl)[C@H]1O	≤ 0.031	≤ 0.031	≤ 0.031	0.5 (≈ 0.29 µM)	0.5 (≈ 0.29 µM)	0.5 (≈ 0.29 µM)	1.56 (≈ 0.905 µM)	1.56 (≈ 0.905 µM)	2 (≈ 1.16 µM)	6.25 (≈ 3.62 µM)	0.78 (≈ 0.452 µM)	1.56 (≈ 0.905 µM)	1.56 (≈ 0.905 µM)	1 (≈ 0.58 µM)	4	4	
CCCCN[C@@]1(C)C[C@H](O[C@H]2[C@H](Oc3c4cc5cc3Oc3ccc(cc3Cl)[C@@H](O[C@H]3C[C@](C)(N)[C@H](O)[C@H](C)O3)[C@@H]3NC(=O)[C@H](NC(=O)[C@@H]5NC(=O)[C@H](CC(N)=O)NC(=O)[C@H](NC(=O)[C@@H](CC(C)C)NC)[C@H](O)c5ccc(c(Cl)c5)O4)c4ccc(O)c(c4)-c4c(O)cc(O)cc4[C@H](C(=O)O)NC3=O)O[C@H](CO)[C@@H](O)[C@@H]2O)O[C@@H](C)[C@H]1O	0.063 (≈ 0.0382 µM)	0.25 (≈ 0.152 µM)	0.125 (≈ 0.0758 µM)	1 (≈ 0.607 µM)	0.5 (≈ 0.303 µM)	0.5 (≈ 0.303 µM)	> 25	1.56 (≈ 0.946 µM)	32 (≈ 19.4 µM)	> 25	0.39 (≈ 0.237 µM)	0.78 (≈ 0.473 µM)	1.56 (≈ 0.946 µM)	0.5 (≈ 0.303 µM)			
CN[C@H](CC(C)C)C(=O)N[C@H]1C(=O)N[C@@H](CC(N)=O)C(=O)N[C@H]2C(=O)N[C@H]3C(=O)N[C@H](C(=O)N[C@@H](C(=O)O)c4cc(O)cc(O)c4-c4cc3ccc4O)[C@H](O[C@H]3C[C@](C)(N)[C@H](O)[C@H](C)O3)c3ccc(c(Cl)c3)Oc3cc2cc(c3O[C@@H]2O[C@H](CO)[C@@H](O)[C@H](O)[C@H]2O[C@H]2C[C@](C)(NCc3ccc(Br)cc3)[C@H](O)[C@H](C)O2)Oc2ccc(cc2Cl)[C@H]1O	≤ 0.031	≤ 0.031	≤ 0.031	0.5 (≈ 0.284 µM)	0.5 (≈ 0.284 µM)	0.5 (≈ 0.284 µM)	1.56 (≈ 0.886 µM)	6.25 (≈ 3.55 µM)	2 (≈ 1.14 µM)	6.25 (≈ 3.55 µM)	1.56 (≈ 0.886 µM)	1.56 (≈ 0.886 µM)	1.56 (≈ 0.886 µM)	1 (≈ 0.568 µM)	4	4	
CN[C@H](CC(C)C)C(=O)N[C@H]1C(=O)N[C@@H](CC(N)=O)C(=O)N[C@H]2C(=O)N[C@H]3C(=O)N[C@H](C(=O)N[C@@H](C(=O)O)c4cc(O)cc(O)c4-c4cc3ccc4O)[C@H](O[C@H]3C[C@](C)(N)[C@H](O)[C@H](C)O3)c3ccc(c(Cl)c3)Oc3cc2cc(c3O[C@@H]2O[C@H](CO)[C@@H](O)[C@H](O)[C@H]2O[C@H]2C[C@](C)(NCc3ccc(OC)cc3)[C@H](O)[C@H](C)O2)Oc2ccc(cc2Cl)[C@H]1O	0.063 (≈ 0.0368 µM)	0.125 (≈ 0.073 µM)	0.125 (≈ 0.073 µM)	0.5 (≈ 0.292 µM)	0.5 (≈ 0.292 µM)	0.5 (≈ 0.292 µM)	1.56 (≈ 0.911 µM)	1.56 (≈ 0.911 µM)	4 (≈ 2.34 µM)	3.13 (≈ 1.83 µM)	0.78 (≈ 0.455 µM)	0.78 (≈ 0.455 µM)	1.56 (≈ 0.911 µM)	1 (≈ 0.584 µM)		4	4
CN[C@H](CC(C)C)C(=O)N[C@H]1C(=O)N[C@@H](CC(N)=O)C(=O)N[C@H]2C(=O)N[C@H]3C(=O)N[C@H](C(=O)N[C@@H](C(=O)O)c4cc(O)cc(O)c4-c4cc3ccc4O)[C@H](O[C@H]3C[C@](C)(N)[C@H](O)[C@H](C)O3)c3ccc(c(Cl)c3)Oc3cc2cc(c3O[C@@H]2O[C@H](CO)[C@@H](O)[C@H](O)[C@H]2O[C@H]2C[C@](C)(NCc3ccccc3Br)[C@H](O)[C@H](C)O2)Oc2ccc(cc2Cl)[C@H]1O	≤ 0.031	0.125 (≈ 0.071 µM)	0.063 (≈ 0.0358 µM)	0.5 (≈ 0.284 µM)	0.5 (≈ 0.284 µM)	0.25 (≈ 0.142 µM)	1.56 (≈ 0.886 µM)	0.39 (≈ 0.221 µM)	4 (≈ 2.27 µM)	> 25	0.195 (≈ 0.111 µM)	1.56 (≈ 0.886 µM)	1.56 (≈ 0.886 µM)	1 (≈ 0.568 µM)		4	4
CN[C@H](CC(C)C)C(=O)N[C@H]1C(=O)N[C@@H](CC(N)=O)C(=O)N[C@H]2C(=O)N[C@H]3C(=O)N[C@H](C(=O)N[C@@H](C(=O)O)c4cc(O)cc(O)c4-c4cc3ccc4O)[C@H](O[C@H]3C[C@](C)(N)[C@H](O)[C@H](C)O3)c3ccc(c(Cl)c3)Oc3cc2cc(c3O[C@@H]2O[C@H](CO)[C@@H](O)[C@H](O)[C@H]2O[C@H]2C[C@](C)(NCc3ccccc3Cl)[C@H](O)[C@H](C)O2)Oc2ccc(cc2Cl)[C@H]1O	≤ 0.031	0.25 (≈ 0.146 µM)	0.125 (≈ 0.0728 µM)	0.5 (≈ 0.291 µM)	0.5 (≈ 0.291 µM)	0.5 (≈ 0.291 µM)	1.56 (≈ 0.909 µM)	1.56 (≈ 0.909 µM)	8 (≈ 4.66 µM)	6.25 (≈ 3.64 µM)	0.78 (≈ 0.454 µM)	1.56 (≈ 0.909 µM)	3.13 (≈ 1.82 µM)	1 (≈ 0.582 µM)		4	4
